Results taken from patent US10131679B2, “Substituted dihydropyrrolopyrazole compound” (UBE INDUSTRIES, LTD., priority 2014, dated 2018).

Tests used:
[1] = biological target: T1, CDK7 (Homo sapiens, UniProt P50613); assay: CDK7 enzyme inhibition test; format: biochemical; conditions: Ki=IC50/(1+S/Km); 33P bound to MBP, [γ-33P]ATP, 30° C. for 20 minutes; read-out: Ki value of CDK7 inhibitory activity
T1 construct: purchased Carna Biosciences, Inc. 04-108
Method in brief: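 Recombinant CDK7 with MBP substrate and [γ-33P]ATP (500 μM solution, diluted into the mix) in HEPES pH 7.4/DTT/Triton X-100/MgCl2, 20 min at 30 °C. TCA-precipitated 33P-MBP counted by scintillation; IC50 from inhibition, Ki = IC50/(1+S/Km).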

[2] = tested on: human large intestine cancer cell line (HCT-116); assay: Human large intestine cancer (HCT-116) cell growth inhibition test; format: cell-based; conditions: 72 h, HCT-116, culture for 3 days, sulforhodamine B absorbance
Method in brief: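 HCT-116 cells seeded at 1.0×10^3 cells/well in McCoy's 5a with 10% FBS, then exposed to compound (0.1% DMSO final) for 3 days. Growth measured by sulforhodamine B absorbance; IC50 derived from concentration-inhibition data.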

T1 sequence (P50613 whole entry): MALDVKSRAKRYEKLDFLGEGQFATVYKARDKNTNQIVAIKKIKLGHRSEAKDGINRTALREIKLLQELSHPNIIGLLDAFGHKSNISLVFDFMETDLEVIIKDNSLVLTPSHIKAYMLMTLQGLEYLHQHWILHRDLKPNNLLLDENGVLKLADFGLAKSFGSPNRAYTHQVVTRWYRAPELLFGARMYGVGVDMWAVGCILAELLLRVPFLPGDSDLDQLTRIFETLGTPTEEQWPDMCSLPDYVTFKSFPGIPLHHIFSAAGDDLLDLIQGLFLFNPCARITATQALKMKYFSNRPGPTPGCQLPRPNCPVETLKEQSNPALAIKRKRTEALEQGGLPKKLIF
T1 sequence (P51946 whole entry partner): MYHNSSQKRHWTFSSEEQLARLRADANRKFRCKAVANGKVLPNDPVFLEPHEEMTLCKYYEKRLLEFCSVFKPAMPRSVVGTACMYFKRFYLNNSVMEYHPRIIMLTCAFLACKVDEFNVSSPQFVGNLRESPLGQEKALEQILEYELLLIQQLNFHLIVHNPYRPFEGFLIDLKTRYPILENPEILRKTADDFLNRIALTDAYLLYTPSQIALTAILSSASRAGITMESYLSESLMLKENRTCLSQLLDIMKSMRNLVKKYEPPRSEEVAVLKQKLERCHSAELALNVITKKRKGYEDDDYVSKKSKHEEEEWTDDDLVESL
T1 sequence (P51948 whole entry partner): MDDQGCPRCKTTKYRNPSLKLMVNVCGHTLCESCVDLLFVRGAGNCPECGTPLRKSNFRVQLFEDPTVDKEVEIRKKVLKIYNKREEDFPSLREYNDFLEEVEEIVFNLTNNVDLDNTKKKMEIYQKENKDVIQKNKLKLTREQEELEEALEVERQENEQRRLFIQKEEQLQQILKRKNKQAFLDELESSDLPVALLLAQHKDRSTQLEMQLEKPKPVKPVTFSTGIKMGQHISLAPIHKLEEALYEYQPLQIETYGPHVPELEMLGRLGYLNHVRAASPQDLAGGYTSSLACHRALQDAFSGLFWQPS

CO[C@@H](C(=O)N1Cc2c(NC(=O)C3([Si](C)(C)C)CCC3)n[nH]c2C1(C)C)c1ccccc1F [IV-1383, (R)—N-{5-[2-(2-Fluorophenyl)-2-methoxyacetyl]-6,6-dimethyl-1,4,5,6-tetrahydropyrrolo[3,4-c]pyrazol-3-yl}-1-(trimethylsilyl)cyclobutanecarboxamide]
Ki [1]: ≤ 0.05 µM | IC50 [2]: ≤ 0.5 µM

CC[Si](C)(C)C1(C(=O)Nc2n[nH]c3c2CN(C(=O)[C@H](OC)c2ccccc2)C3(C)C)CCC1 [IV-1178, (R)-1-(Ethyldimethylsilyl)-N-[5-(2-methoxy-2-phenylacetyl)-6,6-dimethyl-1,4,5,6-tetrahydropyrrolo[3,4-c]pyrazol-3-yl] cyclobutanecarboxamide]
Ki [1]: ≤ 0.05 µM | IC50 [2]: ≤ 0.5 µM

CC1(C)c2[nH]nc(NC(=O)C3([Si](C)(C)C)CCC3)c2CN1C(=O)NCCO [IV-438, N-(2-Hydroxyethyl)-6,6-dimethyl-3-[1-(trimethylsilyl)cyclobutanecarboxamido]-4,6-dihydropyrrolo[3,4-c]pyrazole-5(1H)-carboxamide]
Ki [1]: ≤ 0.05 µM | IC50 [2]: ≤ 0.5 µM

CC1(C)c2[nH]nc(NC(=O)C3([Si](C)(C)C)CCC3)c2CN1C(=O)N[C@H](CCO)c1ccccc1 [IV-227, (R)—N-(3-Hydroxy-1-phenylpropyl)-6,6-dimethyl-3-[1-(trimethylsilyl)cyclobutanecarboxamido]-4,6-dihydropyrrolo[3,4-c]pyrazole-5(1H)-carboxamide]
Ki [1]: ≤ 0.05 µM | IC50 [2]: ≤ 0.5 µM

COC(C(=O)N1Cc2c(NC(=O)C3([Si](C)(C)C)CCC3)n[nH]c2C1(C)C)c1cccs1 (stereo not drawn) [IV-1546, N-{5-[2-Methoxy-2-(thiophen-2-yl)acetyl]-6,6-dimethyl-1,4,5,6-tetrahydropyrrolo[3,4-c]pyrazol-3-yl}-1-(trimethylsilyl)cyclobutanecarboxamide]
Ki [1]: ≤ 0.05 µM | IC50 [2]: ≤ 0.5 µM

CC1(C)c2[nH]nc(NC(=O)C3([Si](C)(C)C)CCC3)c2CN1C(=O)C(CO)c1ccccc1 (stereo not drawn) [IV-632, N-[5-(3-Hydroxy-2-phenylpropanoyl)-6,6-dimethyl-1,4,5,6-tetrahydropyrrolo[3,4-c]pyrazol-3-yl]-1-(trimethylsilyl)cyclobutanecarboxamide]
Ki [1]: ≤ 0.05 µM | IC50 [2]: ≤ 0.5 µM

CC1(C)c2[nH]nc(NC(=O)C3([Si](C)(C)C)CC3)c2CN1C(=O)N[C@H](CO)c1ccccc1 [III-114, (S)—N-(2-Hydroxy-1-phenylethyl)-6,6-dimethyl-3-[1-(trimethylsilyl)cyclopropanecarboxamido]-4,6-dihydropyrrolo[3,4-c]pyrazole-5(1H)-carboxamide]
Ki [1]: ≤ 0.05 µM | IC50 [2]: ≤ 0.5 µM

CC1(C)c2[nH]nc(NC(=O)C3([Si](C)(C)C)CCC3)c2CN1C(=O)[C@H](OC(F)F)c1ccccc1 [IV-1180, (R)—N-{5-[2-(Difluoromethoxy)-2-phenylacetyl]-6,6-dimethyl-1,4,5,6-tetrahydropyrrolo[3,4-c]pyrazol-3-yl}-1-(trimethylsilyl)cyclobutanecarboxamide]
Ki [1]: ≤ 0.05 µM | IC50 [2]: ≤ 0.5 µM

CC[Si](C)(C)C1(C(=O)Nc2n[nH]c3c2CN(C(=O)N[C@H](CO)c2ccccc2)C3(C)C)CCC1 [IV-117, (S)-3-[1-(Ethyldimethylsilyl)cyclobutanecarboxamido]-N-(2-hydroxy-1-phenylethyl)-6,6-dimethyl-4,6-dihydropyrrolo[3,4-c]pyrazole-5(1H)-carboxamide]
Ki [1]: ≤ 0.05 µM | IC50 [2]: ≤ 0.5 µM

CN(C(=O)N1Cc2c(NC(=O)C3([Si](C)(C)C)CCC3)n[nH]c2C1(C)C)[C@H](CO)c1ccccc1 [IV-119, (S)—N-(2-Hydroxy-1-phenylethyl)-N,6,6-trimethyl-3-[1-(trimethylsilyl)cyclobutanecarboxamido]-4,6-dihydropyrrolo[3,4-c]pyrazole-5(1H)-carboxamide]
Ki [1]: ≤ 0.05 µM | IC50 [2]: ≤ 0.5 µM

CCO[C@@H](C(=O)N1Cc2c(NC(=O)C3([Si](C)(C)C)CCC3)n[nH]c2C1(C)C)c1ccccc1 [IV-1188, (R)—N-[5-(2-Ethoxy-2-phenylacetyl)-6,6-dimethyl-1,4,5,6-tetrahydropyrrolo[3,4-c]pyrazol-3-yl]-1-(trimethylsilyl)cyclobutanecarboxamide]
Ki [1]: ≤ 0.05 µM | IC50 [2]: ≤ 0.5 µM

CC(C)[C@@H](CO)NC(=O)N1Cc2c(NC(=O)C3([Si](C)(C)C)CCC3)n[nH]c2C1(C)C [IV-475, (S)—N-(1-Hydroxy-3-methylbutan-2-yl)-6,6-dimethyl-3-[1-(trimethylsilyl)cyclobutanecarboxamido]-4,6-dihydropyrrolo[3,4-c]pyrazole-5(1H)-carboxamide]
Ki [1]: ≤ 0.05 µM | IC50 [2]: ≤ 0.5 µM

CC(C)(O)C[C@@H](NC(=O)N1Cc2c(NC(=O)C3([Si](C)(C)C)CCC3)n[nH]c2C1(C)C)c1ccccc1 [IV-299, (R)—N-(3-Hydroxy-3-methyl-1-phenylbutyl)-6,6-dimethyl-3-[1-(trimethylsilyl)cyclobutanecarboxamido]-4,6-dihydropyrrolo[3,4-c]pyrazole-5(1H)-carboxamide]
Ki [1]: ≤ 0.05 µM | IC50 [2]: ≤ 0.5 µM

CC1(C)c2[nH]nc(NC(=O)C3([Si](C)(C)C)CCC3)c2CN1C(=O)N[C@H](CCCO)c1ccccc1 [IV-283, (R)—N-(4-Hydroxy-1-phenylbutyl)-6,6-dimethyl-3-[1-(trimethylsilyl)cyclobutanecarboxamido]-4,6-dihydropyrrolo[3,4-c]pyrazole-5(1H)-carboxamide]
Ki [1]: ≤ 0.05 µM | IC50 [2]: ≤ 0.5 µM

CC(C)(O)[C@@H](NC(=O)N1Cc2c(NC(=O)C3([Si](C)(C)C)CCC3)n[nH]c2C1(C)C)c1ccccc1 [IV-171, (S)—N-(2-Hydroxy-2-methyl-1-phenylpropyl)-6,6-dimethyl-3-[1-(trimethylsilyl)cyclobutanecarboxamido]-4,6-dihydropyrrolo[3,4-c]pyrazole-5(1H)-carboxamide]
Ki [1]: ≤ 0.05 µM | IC50 [2]: ≤ 0.5 µM

CC1(C)c2[nH]nc(NC(=O)C3([Si](C)(C)C)CCC3)c2CN1C(=O)[C@H](OC1CC1)c1ccccc1 [IV-1208, (R)—N-[5-(2-Cyclopropoxy-2-phenylacetyl)-6,6-dimethyl-1,4,5,6-tetrahydropyrrolo[3,4-c]pyrazol-3-yl]-1-(trimethylsilyl)cyclobutanecarboxamide]
Ki [1]: ≤ 0.05 µM | IC50 [2]: ≤ 0.5 µM

COC(C(=O)N1Cc2c(NC(=O)C3([Si](C)(C)C)CCC3)n[nH]c2C1(C)C)c1cccc(F)c1 (stereo not drawn) [IV-1404, N-{5-[2-(3-Fluorophenyl)-2-methoxyacetyl]-6,6-dimethyl-1,4,5,6-tetrahydropyrrolo[3,4-c]pyrazol-3-yl}-1-(trimethylsilyl)cyclobutanecarboxamide]
Ki [1]: ≤ 0.05 µM | IC50 [2]: ≤ 0.5 µM

CC(C)(O)C[C@@H](NC(=O)N1Cc2c(NC(=O)C3([Si](C)(C)C)CCC3)n[nH]c2C1(C)C)c1cccc(F)c1 [IV-911, (R)—N-[1-(3-Fluorophenyl)-3-hydroxy-3-methylbutyl]-6,6-dimethyl-3-[1-(trimethylsilyl)cyclobutanecarboxamido]-4,6-dihydropyrrolo[3,4-c]pyrazole-5(1H)-carboxamide]
Ki [1]: ≤ 0.05 µM | IC50 [2]: ≤ 0.5 µM

CC1(C)c2[nH]nc(NC(=O)C3([Si](C)(C)C)CCC3)c2CN1C(=O)N[C@H](CC1(O)CC1)c1ccccc1 [IV-743, (R)—N-[2-(1-Hydroxycyclopropyl)-1-phenylethyl]-6,6-dimethyl-3-[1-(trimethylsilyl)cyclobutanecarboxamido]-4,6-dihydropyrrolo[3,4-c]pyrazole-5(1H)-carboxamide]
Ki [1]: ≤ 0.05 µM | IC50 [2]: ≤ 0.5 µM

CCCO[C@@H](C(=O)N1Cc2c(NC(=O)C3([Si](C)(C)C)CCC3)n[nH]c2C1(C)C)c1ccccc1 [IV-1196, (R)—N-[6,6-Dimethyl-5-(2-phenyl-2-propoxyacetyl)-1,4,5,6-tetrahydropyrrolo[3,4-c]pyrazol-3-yl]-1-(trimethylsilyl)cyclobutanecarboxamide]
Ki [1]: ≤ 0.05 µM | IC50 [2]: ≤ 0.5 µM

CC(C)(O)C[C@@H](NC(=O)N1Cc2c(NC(=O)C3([Si](C)(C)C)CCC3)n[nH]c2C1(C)C)c1ccc(F)cc1 [IV-939, (R)—N-[1-(4-Fluorophenyl)-3-hydroxy-3-methylbutyl]-6,6-dimethyl-3-[1-(trimethylsilyl)cyclobutanecarboxamido]-4,6-dihydropyrrolo[3,4-c]pyrazole-5(1H)-carboxamide]
Ki [1]: ≤ 0.05 µM | IC50 [2]: ≤ 0.5 µM

CC1(C)c2[nH]nc(NC(=O)C3([Si](C)(C)C)CCC3)c2CN1C(=O)N[C@H](CO)C1CCCCC1 [IV-495, (S)—N-(1-Cyclohexyl-2-hydroxyethyl)-6,6-dimethyl-3-[1-(trimethylsilyl)cyclobutanecarboxamido]-4,6-dihydropyrrolo[3,4-c]pyrazole-5(1H)-carboxamide]
Ki [1]: ≤ 0.05 µM | IC50 [2]: ≤ 0.5 µM

CCOC[C@@H](NC(=O)N1Cc2c(NC(=O)C3([Si](C)(C)C)CCC3)n[nH]c2C1(C)C)c1ccccc1 [IV-139, (S)—N-(2-Ethoxy-1-phenylethyl)-6,6-dimethyl-3-[1-(trimethylsilyl)cyclobutanecarboxamido]-4,6-dihydropyrrolo[3,4-c]pyrazole-5(1H)-carboxamide]
Ki [1]: ≤ 0.05 µM | IC50 [2]: ≤ 0.5 µM

COC[C@@H](NC(=O)N1Cc2c(NC(=O)C3([Si](C)(C)C)CCC3)n[nH]c2C1(C)C)c1ccccc1 [IV-123, (S)—N-(2-Methoxy-1-phenylethyl)-6,6-dimethyl-3-[1-(trimethylsilyl)cyclobutanecarboxamido]-4,6-dihydropyrrolo[3,4-c]pyrazole-5(1H)-carboxamide]
Ki [1]: ≤ 0.05 µM | IC50 [2]: ≤ 0.5 µM
